From patent publication US20240174690A1, “ANNULATED 2-AMINO-3-CYANO THIOPHENES AND DERIVATIVES FOR THE TREATMENT OF CANCER” (BOEHRINGER INGELHEIM INTERNATIONAL GMBH, priority 2021, published 2024)
Where two headings read alike, the source gives them in different places.

Key:
[1] = biological target: KRAS (G12C)::SOS1 (Homo sapiens (Human), UniProt P01116, C118S/C51S/C80L/G12C); assay: KRAS::SOS1 AlphaScreen binding assay, KRAS G12C
In short: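 Compounds (up to 100 μM, eleven fivefold dilutions in duplicate) were incubated 30 min with KRAS 1-169 (10 nM, or 7.5 nM for G12C), GST-SOS1 564-1049 (5 nM for G12D/G12C, 10 nM for others) and 10 μM GDP in PBS buffer with BSA and Tween. Donor/acceptor beads were then added for 60 min at room temperature, and IC50 came from a 4-parameter fit of the AlphaScreen signal.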

[2] = test system: LOVO cells; assay: LOVO CTG proliferation assay (120 h) (CRC, G13D); assay type: cell-based; conditions: CTG 120 h
In short: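 LOVO cells, 1000 per well in DMEM + 10% FCS, were plated overnight and then dosed with compound from DMSO stock. After 120 h at 37 °C, viability was read by CellTiter-Glo luminescence as a percentage of DMSO controls. IC50 was derived by four-parameter non-linear regression.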

[3] = test system: NCI-H358 cells; assay: NCI-H358 CTG proliferation assay (120 h) (NSCLC, G12C); assay type: cell-based, human; conditions: Homo sapiens
In short: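 NCI-H358 cells (KRAS G12C) were seeded at 2000/well (assay 1) or 200/well (assay 2) in RPMI-1640 + 10% FCS and dosed with a logarithmic series, DMSO-normalized. After 120 h, viability was read by CellTiter-Glo luminescence as percent of DMSO control, with a T0 read at dosing. IC50 came from a four-parameter fit.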

[4] = assay 2, CTG, read-out: H358 (assay 2) IC50
[5] = assay 1, CTG, read-out: H358 (assay 1) IC50

Chain of KRAS (G12C)::SOS1 (P01116 other isoform, or with tags, fused parts or gaps G12C/C51S/C80L/C118S): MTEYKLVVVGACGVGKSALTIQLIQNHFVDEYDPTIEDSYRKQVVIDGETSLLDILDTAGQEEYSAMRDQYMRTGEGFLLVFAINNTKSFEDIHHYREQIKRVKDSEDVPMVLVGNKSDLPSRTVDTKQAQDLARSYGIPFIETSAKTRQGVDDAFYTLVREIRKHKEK

Structure (SMILES)	IC50 [1]	IC50 ([2]; Homo sapiens)	IC50 [3, 4]	IC50 [3, 5]	IC50 [2]
C[C@H](Oc1cc(Cl)nc(-c2onc3c2CCC[C@@]32CCCc3sc(N)c(C#N)c32)n1)[C@@H]1CCCN1C [I-1]	2 nM	1270 nM	577 nM	–	–
C[C@H](Oc1nc(-c2onc3c2CCC[C@@]32CCCc3sc(N)c(C#N)c32)cc(N2CCNC3(CC3)C2)n1)[C@@H]1CCCN1C [I-2]	45 nM	–	–	–	–
C[C@H](Oc1cc(N2CCNC3(CCC3)C2)nc(-c2onc3c2CCC[C@@]32CCCc3sc(N)c(C#N)c32)n1)[C@@H]1CCCN1C [I-3]	3 nM	2160 nM	1320 nM	–	–
C[C@H](Oc1cc(N2CCNC3(COC3)C2)nc(-c2onc3c2CCC[C@@]32CCCc3sc(N)c(C#N)c32)n1)[C@@H]1CCCN1C [I-4]	2 nM	205 nM	740 nM	–	–
C[C@H](Oc1cc(-n2ccnc2)nc(-c2onc3c2CCC[C@@]32CCCc3sc(N)c(C#N)c32)n1)[C@@H]1CCCN1C [I-20]	2 nM	298 nM	287 nM	–	–
C[C@H](Oc1cc(-c2ccn(C)n2)nc(-c2onc3c2CCC[C@@]32CCCc3sc(N)c(C#N)c32)n1)[C@@H]1CCCN1C [I-21]	2 nM	–	–	–	128 nM
C[C@H](Oc1cc([C@@H]2CCOC2)nc(-c2onc3c2CCC[C@@]32CCCc3sc(N)c(C#N)c32)n1)[C@@H]1CCCN1C [I-22]	2 nM	31 nM	10 nM	31 nM	–
CO[C@@H]1C[C@@H]([C@H](C)Oc2cc(-c3ccn(C)n3)nc(-c3onc4c3CCC[C@@]43CCCc4sc(N)c(C#N)c43)n2)N(C)C1 [I-23]	3 nM	79 nM	–	1 nM	–
Cc1nc(-c2cc(O[C@@H](C)[C@@H]3CCCN3C)nc(-c3onc4c3CCC[C@@]43CCCc4sc(N)c(C#N)c43)n2)cs1 [I-24]	2 nM	101 nM	163 nM	–	–
C[C@H](Oc1cc(-c2ccc(N)nc2)nc(-c2onc3c2CCC[C@@]32CCCc3sc(N)c(C#N)c32)n1)[C@@H]1CCCN1C [I-25]	2 nM	1060 nM	188 nM	–	–
C[C@H](Oc1cc(-c2ccn(CC(C)(C)O)n2)nc(-c2onc3c2CCC[C@@]32CCCc3sc(N)c(C#N)c32)n1)[C@@H]1CCCN1C [I-26]	2 nM	281 nM	140 nM	–	–
C[C@H](Oc1cc(-c2cnsc2)nc(-c2onc3c2CCC[C@@]32CCCc3sc(N)c(C#N)c32)n1)[C@@H]1CCCN1C [I-27]	2 nM	265 nM	121 nM	–	–
Cc1ccc(-c2cc(O[C@@H](C)[C@@H]3CCCN3C)nc(-c3onc4c3CCC[C@@]43CCCc4sc(N)c(C#N)c43)n2)cn1 [I-28]	3 nM	390 nM	240 nM	–	–
C[C@H](Oc1cc(-n2nccn2)nc(-c2onc3c2CCC[C@@]32CCCc3sc(N)c(C#N)c32)n1)[C@@H]1CCCN1C [I-29]	3 nM	1650 nM	2760 nM	–	–
C[C@H](Oc1cc(-c2ccn(C[C@@H](C)O)n2)nc(-c2onc3c2CCC[C@@]32CCCc3sc(N)c(C#N)c32)n1)[C@@H]1CCCN1C [I-30]	2 nM	66 nM	205 nM	–	–
C[C@H](O)Cn1ccc(-c2cc(O[C@@H](C)[C@@H]3CCCN3C)nc(-c3onc4c3CCC[C@@]43CCCc4sc(N)c(C#N)c43)n2)n1 [I-31]	2 nM	–	266 nM	–	–

Structure (SMILES)	IC50 [1]	IC50 ([2]; Homo sapiens)	IC50 [3, 4]	IC50 [3, 5]	IC50 [2]
C[C@H](Oc1cc(-n2ccnn2)nc(-c2onc3c2CCC[C@@]32CCCc3sc(N)c(C#N)c32)n1)[C@@H]1CCCN1C [I-32]	2 nM	159 nM	303 nM	–	–
C[C@H](Oc1cc(-c2ccn3ncnc3c2)nc(-c2onc3c2CCC[C@@]32CCCc3sc(N)c(C#N)c32)n1)[C@@H]1CCCN1C [I-33]	2 nM	574 nM	–	–	–
C[C@H](Oc1cc(-c2ccn(C3COC3)n2)nc(-c2onc3c2CCC[C@@]32CCCc3sc(N)c(C#N)c32)n1)[C@@H]1CCCN1C [I-34]	2 nM	161 nM	76 nM	–	–
C[C@H](Oc1cc(N2CCN(C)C3(COC3)C2)nc(-c2onc3c2CCC[C@@]32CCCc3sc(N)c(C#N)c32)n1)[C@@H]1C[C@@H](F)CN1C [I-37]	2 nM	165 nM	3890 nM	–	–
C[C@H](Oc1nc(-c2onc3c2CCC[C@@]32CCCc3sc(N)c(C#N)c32)cc(N2CCN(C)C3(CC3)C2)n1)[C@@H]1CCCN1C [I-40]	88 nM	–	–	–	–
C[C@H](Oc1cc(N2CCN(C)C3(CC3)C2)nc(-c2onc3c2CCC[C@@]32CCCc3sc(N)c(C#N)c32)n1)[C@@H]1CCCN1C [I-41]	6 nM	304 nM	–	–	–
C[C@H]1CN(C)CCCN1c1nc(-c2onc3c2CCC[C@@]32CCCc3sc(N)c(C#N)c32)cc(N2CCN(C)C3(CC3)C2)n1 [I-42]	606 nM	–	–	–	–
C[C@H](Oc1cc(N2C[C@H](C)N(C)[C@@H](C)C2)nc(-c2onc3c2CCC[C@@]32CCCc3sc(N)c(C#N)c32)n1)[C@@H]1CCCN1C [I-43]	6 nM	554 nM	–	–	–
C[C@H](Oc1cc(N2CC(N(C)C)C2)nc(-c2noc3c2CCC[C@@]32CCCc3sc(N)c(C#N)c32)n1)[C@@H]1CCCN1C [II-7]	5 nM	835 nM	–	–	–
C[C@H](Oc1cc(N2CCN(CCO)CC2)nc(-c2noc3c2CCC[C@@]32CCCc3sc(N)c(C#N)c32)n1)[C@@H]1CCCN1C [II-8]	3 nM	680 nM	–	–	–
C[C@H](Oc1cc(N2C[C@@H](N(C)C)[C@@H](F)C2)nc(-c2noc3c2CCC[C@@]32CCCc3sc(N)c(C#N)c32)n1)[C@@H]1CCCN1C [II-11]	6 nM	383 nM	–	–	–
C[C@H](Oc1cc(N2CC[C@H](N3CCCCC3)C2)nc(-c2noc3c2CCC[C@@]32CCCc3sc(N)c(C#N)c32)n1)[C@@H]1CCCN1C [II-12]	8 nM	401 nM	–	–	–
C[C@H](Oc1cc(N2CCN(C)C3(COC3)C2)nc(-c2noc3c2CCC[C@@]32CCCc3sc(N)c(C#N)c32)n1)[C@@H]1CCCN1C [II-13]	2 nM	61 nM	–	–	–
C[C@H](Oc1cc(N2CC[C@H](N3CCCC3)C2)nc(-c2noc3c2CCC[C@@]32CCCc3sc(N)c(C#N)c32)n1)[C@@H]1CCCN1C [II-14]	4 nM	674 nM	–	–	–
C[C@H](Oc1cc(N2CC3CCC(C2)N3)nc(-c2noc3c2CCC[C@@]32CCCc3sc(N)c(C#N)c32)n1)[C@@H]1CCCN1C [II-34]	3 nM	2400 nM	–	–	–

Now from value to compound, other results behind:

IC50 [1]	IC50 ([2]; Homo sapiens)	IC50 [3, 4]	IC50 [3, 5]	Structure (SMILES)	IC50 [2]
7 nM	867 nM	–	–	C[C@H](Oc1cc(N2CC[C@H](N(C)C)C2)nc(-c2noc3c2CCC[C@@]32CCCc3sc(N)c(C#N)c32)n1)[C@@H]1C[C@@H](F)CN1C [II-15]	–
74 nM	1340 nM	–	–	C[C@H]1CN(C)CCCN1c1cc(N2CC[C@H](N(C)C)C2)nc(-c2noc3c2CCC[C@@]32CCCc3sc(N)c(C#N)c32)n1 [II-16]	–
2 nM	7420 nM	–	–	C[C@H](Oc1cc(-n2ccc(C(=O)O)n2)nc(-c2noc3c2CCC[C@@]32CCCc3sc(N)c(C#N)c32)n1)[C@@H]1CCCN1C [II-24]	–
1 nM	63 nM	–	–	C[C@H](Oc1cc(-n2ccc(C(=O)NC3COC3)n2)nc(-c2noc3c2CCC[C@@]32CCCc3sc(N)c(C#N)c32)n1)[C@@H]1CCCN1C [II-25]	–
7 nM	720 nM	–	–	C[C@H](Oc1cc(-c2cnn(C)n2)nc(-c2noc3c2CCC[C@@]32CCCc3sc(N)c(C#N)c32)n1)[C@@H]1C[C@@H](F)CN1C [II-28]	–
19 nM	> 25000 nM	–	–	C[C@H]1CN(C)CCCN1c1cc(N2CCN(C)CC2)nc(-c2noc3c2CCC[C@@]32CCCc3sc(N)c(C#N)c32)n1 [II-30]	–
2 nM	8320 nM	–	–	C[C@H](Oc1cc(N2CCNC(C)(C)C2)nc(-c2noc3c2CCC[C@@]32CCCc3sc(N)c(C#N)c32)n1)[C@@H]1CCCN1C [II-32]	–
8 nM	737 nM	–	–	C[C@H](Oc1cc(N2C[C@H]3CN(C)C[C@H]3C2)nc(-c2noc3c2CCC[C@@]32CCCc3sc(N)c(C#N)c32)n1)[C@@H]1CCCN1C [II-33]	–
2 nM	16600 nM	–	–	C[C@@H]1CN(c2cc(O[C@@H](C)[C@@H]3CCCN3C)nc(-c3noc4c3CCC[C@@]43CCCc4sc(N)c(C#N)c43)n2)C[C@H](C)N1 [II-36]	–
3 nM	692 nM	–	–	C[C@H](Oc1cc([C@@H]2CCN(C)C2)nc(-c2noc3c2CCC[C@@]32CCCc3sc(N)c(C#N)c32)n1)[C@@H]1CCCN1C [II-37]	–
2 nM	74 nM	–	–	C[C@H](Oc1cc([C@H]2CCN(C)C2)nc(-c2noc3c2CCC[C@@]32CCCc3sc(N)c(C#N)c32)n1)[C@@H]1CCCN1C [II-38]	–
6 nM	2920 nM	–	–	C[C@H](Oc1cc(N2CCN(C)CC2)nc(-c2noc3c2CCC[C@@]32CCCc3sc(N)c(C#N)c32)n1)[C@@H]1CCCN1[C@@H]1CCOC1 [II-39]	–
37 nM	1220 nM	–	–	C[C@H](Oc1nc(-c2noc3c2CCC[C@@]32CCCc3sc(N)c(C#N)c32)cc(N2C[C@H](C)N[C@@H](C)C2)n1)[C@@H]1CCCN1C [II-46]	–
–	51 nM	–	–	C[C@H](Oc1cc(-n2ccsc2=O)nc(-c2noc3c2CCC[C@@]32CCCc3sc(N)c(C#N)c32)n1)[C@@H]1CCCN1C [II-135]	–
